How the values were obtained:
[1] = test system: P. falciparum 3D7 trophozoites; assay: Metabolomic fingerprint profiling LC-MS; format: cell-based, Plasmodium falciparum; set-up: UDP-D-glucose / ADP-D-glucose: unit not given here
P. falciparum = assay: EC50 listed in S2 Table Metabolomics (used to set the concentration tested); format: cell-based; conditions: Plasmodium falciparum; EC50 used for Factor_XEC50 in metabolomics; read-out: EC50_nM
[2] = metabolite level change after treatment

`CCOC(=O)c1ccc2nc(-c3ccccc3)cc(O)c2c1` [MMV006457] showed an Acetyllysine ([1]; S2 Table Metabolomics, metabolite Acetyllysine) of -0.3384, a N-acetyl-L-ornithine ([1]; S2 Table Metabolomics, metabolite N-acetyl-L-ornithine) of -0.3139 and a N-carbamoyl-L-aspartate ([1]; S2 Table Metabolomics, metabolite N-carbamoyl-L-aspartate) of 4.351. For the same molecule, the NADPH ([1]; S2 Table Metabolomics, metabolite NADPH) was 0.6352, the dAMP ([1]; S2 Table Metabolomics, metabolite dAMP) was -0.4724 and the dCMP ([1]; S2 Table Metabolomics, metabolite dCMP) was -0.3312. For the same molecule, the dTDP ([1]; S2 Table Metabolomics, metabolite dTDP) was -1.515, the dTMP ([1]; S2 Table Metabolomics, metabolite dTMP) was -1.363 and the dTTP ([1]; S2 Table Metabolomics, metabolite dTTP) was -1.304. It also gave a dihydroorotate ([1]; S2 Table Metabolomics, metabolite dihydroorotate) of 4.958, an orotate ([1]; S2 Table Metabolomics, metabolite orotate) of -1.367 and a DLH ([1]; S2 Table Metabolomics, peptide DLH) of -0.4882. It also gave a DLS/SDL/SID ([1]; S2 Table Metabolomics, peptide DLS/SDL/SID) of -0.4763, a PD ([1]; S2 Table Metabolomics, peptide PD) of 0.2786 and a PEE ([1]; S2 Table Metabolomics, peptide PEE) of -0.4235. For the same molecule, the PVNF ([1]; S2 Table Metabolomics, peptide PVNF) was -0.7922, the 3-phosphoglycerate ([1]; metabolite 3-phosphoglycerate, S2 Table Metabolomics) was 0.07595 and the ADP-D-glucose ([1]; metabolite ADP-D-glucose, S2 Table Metabolomics) was 0.02112. For the same molecule, the ATP ([1]; metabolite ATP, S2 Table Metabolomics) was 0.06279, the CDP ([1]; metabolite CDP, S2 Table Metabolomics, change in metabolite level after compound treatment) was -1.282 and the D-sedoheptulose-1/7-phosphate ([1]; metabolite D-sedoheptulose-1/7-phosphate, S2 Table Metabolomics, change in metabolite level after compound treatment) was -0.2959. For the same molecule, the FAD ([1]; metabolite FAD, S2 Table Metabolomics) was 0.202, the GMP ([1]; metabolite GMP, S2 Table Metabolomics, change in metabolite level after compound treatment) was 0.5528 and the “NAD+” value ([1]; metabolite NAD+, S2 Table Metabolomics) was 0.1474. For the same molecule, the “NADP+” value ([1]; metabolite NADP+, S2 Table Metabolomics) was -0.1781, the “Octoluse Bisphosphate” value ([1]; metabolite Octoluse Bisphosphate, S2 Table Metabolomics, change in metabolite level after compound treatment) was -0.2401 and the Pyroglutamic acid ([1]; metabolite Pyroglutamic acid, S2 Table Metabolomics) was 0.01503. For the same molecule, the UDP-D-glucose ([1]; metabolite UDP-D-glucose, S2 Table Metabolomics) was 0.02564, the UDP-D-glucuronate ([1]; metabolite UDP-D-glucuronate, S2 Table Metabolomics) was -0.1377 and the UDP-N-acetyl-glucosamine ([1]; metabolite UDP-N-acetyl-glucosamine, S2 Table Metabolomics) was -0.1506. The UDP ([1]; metabolite UDP, S2 Table Metabolomics, change in metabolite level after compound treatment) was -1.814, the UMP ([1]; metabolite UMP, S2 Table Metabolomics, change in metabolite level after compound treatment) was -1.819 and the UTP ([1]; metabolite UTP, S2 Table Metabolomics, change in metabolite level after compound treatment) was -1.644. For the same molecule, the a-ketoglutarate ([1]; metabolite a-ketoglutarate, S2 Table Metabolomics) was -0.2281, the citrate/isocitrate ([1]; metabolite citrate/isocitrate, S2 Table Metabolomics, change in metabolite level after compound treatment) was -0.877 and the cytidine ([1]; metabolite cytidine, S2 Table Metabolomics) was 0.9143. For the same molecule, the dATP ([1]; metabolite dATP, S2 Table Metabolomics) was 0.2755, the dGMP/AMP ([1]; metabolite dGMP/AMP, S2 Table Metabolomics, change in metabolite level after compound treatment) was -0.2048 and the fumarate ([1]; metabolite fumarate, S2 Table Metabolomics, change in metabolite level after compound treatment) was 0.4222. The glucose-1/6-phosphate ([1]; metabolite glucose-1/6-phosphate, S2 Table Metabolomics, change in metabolite level after compound treatment) was 0.1449, the glycerate ([1]; metabolite glycerate, S2 Table Metabolomics, change in metabolite level after compound treatment) was -0.03038 and the guanine ([1]; metabolite guanine, S2 Table Metabolomics, change in metabolite level after compound treatment) was 0.7811. For the same molecule, the guanosine ([1]; metabolite guanosine, S2 Table Metabolomics, change in metabolite level after compound treatment) was 0.4264, the hypoxanthine ([1]; metabolite hypoxanthine, S2 Table Metabolomics) was 0.2443 and the indole ([1]; metabolite indole, S2 Table Metabolomics) was 0.3097. It also gave an inosine ([1]; metabolite inosine, S2 Table Metabolomics, change in metabolite level after compound treatment) of 0.319, a 2_3-Diphosphoglyceric acid [1, 2] of -0.1036 and a 4-phosphopantothenate [1, 2] of -0.4551. The 6-phospho-D-gluconate [1, 2] was 0.1425, the FMN [1, 2] was -0.04566 and the IMP [1, 2] was 0.4558. The Pyrophosphate [1, 2] was 0.1188, the Sedoheptoluse bisphosphate [1, 2] was -0.2455 and the cyclic-AMP [1, 2] was -0.04029. For the same molecule, the glutathione disulfide [1, 2] was 0.1448, the lactate [1, 2] was 0.2927 and the myo-inositol [1, 2] was -0.1285. It also gave a nicotinate ([1]; metabolite nicotinate, S2 Table Metabolomics) of 0.07641, an ornithine ([1]; metabolite ornithine, S2 Table Metabolomics) of 0.3647 and a phosphoenolpyruvate ([1]; metabolite phosphoenolpyruvate, S2 Table Metabolomics) of -0.1372. For the same molecule, the pyruvate ([1]; metabolite pyruvate, S2 Table Metabolomics, change in metabolite level after compound treatment) was -0.1462, the ribose-phosphate ([1]; metabolite ribose-phosphate, S2 Table Metabolomics) was 0.3187 and the sarcosine/alanine ([1]; metabolite sarcosine/alanine, S2 Table Metabolomics, change in metabolite level after compound treatment) was 0.6115. The sn-glycerol-3-phosphate ([1]; metabolite sn-glycerol-3-phosphate, S2 Table Metabolomics) was 0.3451, the succinate/methylmalonic acid ([1]; metabolite succinate/methylmalonic acid, S2 Table Metabolomics, change in metabolite level after compound treatment) was -0.4755 and the uridine ([1]; metabolite uridine, S2 Table Metabolomics, change in metabolite level after compound treatment) was -0.2838. The xanthosine ([1]; metabolite xanthosine, S2 Table Metabolomics, change in metabolite level after compound treatment) was -0.0194 and the EC50 (P. falciparum) was 118 nM.

Source: paper PMC4965013, “Open Source Drug Discovery with the Malaria Box Compound Collection for Neglected Diseases and Beyond” (PLoS Pathogens, 2016)
